For 1 compound, IC50 results are on record in ChEMBL document CHEMBL5241066, “Research progress of MEK1/2 inhibitors and degraders in the treatment of cancer” (Eur J Med Chem, 2021).

This assay deals with KE-37. Put plainly: Anticancer activity against human KE-37 cells assessed as reduction in cell viability. The class given is functional, cell-based.

In the case of `C=CCc1cccc(/C=N/NC(=O)CN2CCN(Cc3ccccc3)CC2)c1O` [PAC-1], the IC50 was 242 nM.

For orientation: IC50 means the concentration that gives 50% inhibition.
